Molecular target: T1, human AT1 receptor (Homo sapiens, UniProt P30556)
T1 construct: expressed in transfected cells; host or cells: CHO-K1
T1 sequence (P30556 1-359): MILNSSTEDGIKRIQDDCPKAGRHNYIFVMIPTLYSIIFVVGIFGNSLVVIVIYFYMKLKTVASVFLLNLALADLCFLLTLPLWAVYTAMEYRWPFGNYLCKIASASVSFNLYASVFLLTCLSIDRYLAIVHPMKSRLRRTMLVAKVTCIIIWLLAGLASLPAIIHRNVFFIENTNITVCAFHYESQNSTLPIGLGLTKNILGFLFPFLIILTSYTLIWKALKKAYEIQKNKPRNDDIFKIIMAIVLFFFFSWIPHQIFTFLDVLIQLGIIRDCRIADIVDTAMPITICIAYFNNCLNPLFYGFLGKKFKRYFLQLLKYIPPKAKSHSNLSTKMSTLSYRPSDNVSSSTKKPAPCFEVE
Assay: AT1 radioligand binding assay (Assay 1)
Conditions: displacement of [Eu]AngII 2 nM, membranes of CHO-K1 cells expressing human AT1 receptor
Procedure: These in vitro assays were used to assess the ability of test compounds to bind to the AT1 and the AT2 receptors.
Chinese hamster ovary (CHO-K1) derived cell lines stably expressing the cloned human AT1 or AT2 receptors, respectively, were grown in HAM's-F12 medium supplemented with 10% fetal bovine serum, 10 μg/ml penicillin/streptomycin, and 500 μg/ml geneticin in a 5% CO2 humidified incubator at 37° C. AT2 receptor expressing cells were grown in the additional presence of 100 nM PD123,319 (AT2 antagonist). When cultures reached 80-95% confluence, the cells were washed thoroughly in PBS and lifted with 5 mM EDTA. […]
Binding assays were performed in 96-well Acrowell filter plates (Pall Inc., cat. #5020) in a total assay volume of 100 μL, with 0.2 μg membrane protein for membranes containing the human AT1 receptor, or 2 μg membrane protein for membranes containing the human AT2 receptor in assay buffer (50 mM Tris/HCl pH 7.5 at 20° C., 5 mM MgCl2, 25 μM EDTA, 0.025% BSA). […] Non-specific binding was determined in the presence of 10 μM unlabeled angiotensin-II. […] Filter-bound [Eu]AngII was quantitated immediately on a Fusion plate reader (PerkinElmer) using Time Resolved Fluorescence (TRF). Binding data were analyzed by nonlinear regression analysis with the GraphPad Prism Software package (GraphPad Software, Inc., San Diego, Calif.) using the 3-parameter model for one-site competition. […]

4′-2-Butyl-4-chloro-5-[((S)-2-mercaptomethyl-4-methylpentanoylamino)methyl]imidazol-1-ylmethylbiphenyl-2-carboxylic Acid [Example 1]
pKi at the AT1 receptor: greater than 7.0

From patent publication US8349875B2, “Dual-acting antihypertensive agents” (Theravance, Inc., priority 2007, dated 2013)
